How the values were obtained:
Test in all cases: relative viability (nuclei count vs DMSO), 5 days (fraction); higher = more cells survive
Cediranib + Lapatinib = compound: COc1cc2c(Oc3ccc4[nH]c(C)cc4c3F)ncnc2cc1OCCCN1CCCC1 [Cediranib] + CS(=O)(=O)CCNCc1ccc(-c2ccc3ncnc(Nc4ccc(OCc5cccc(F)c5)c(Cl)c4)c3c2)o1 [Lapatinib] (partner 2 µM)
How it was run: (§1)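 Lung cancer cell lines, seeded in 1536-well plates, were treated the following day by pin tool with a single drug or with five library-drug doses (not always all listed) in √10 steps on top of a fixed anchor-drug dose. Cells were fixed and nuclei stained in one step after 5 days, and nuclei were counted. Relative viability is the nuclei count for treated wells divided by that for vehicle wells, reported as medians of duplicate plates.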

Cediranib + Olaparib = compound: COc1cc2c(Oc3ccc4[nH]c(C)cc4c3F)ncnc2cc1OCCCN1CCCC1 [Cediranib] + O=C(c1cc(Cc2n[nH]c(=O)c3ccccc23)ccc1F)N1CCN(C(=O)C2CC2)CC1 [Olaparib] (partner 8 µM)
How it was run: as §1

Decitabine + Lapatinib = compound: Nc1ncn([C@H]2C[C@H](O)[C@@H](CO)O2)c(=O)n1 [Decitabine] + CS(=O)(=O)CCNCc1ccc(-c2ccc3ncnc(Nc4ccc(OCc5cccc(F)c5)c(Cl)c4)c3c2)o1 [Lapatinib] (partner 2 µM)
How it was run: as §1

[1] = compound: O=C(C[C@H]1NCCC[C@@H]1O)Cn1cnc2cc(Br)c(Cl)cc2c1=O (racemic) [Halofuginone] + N=C(N)NC(=N)NCCc1ccccc1 [Phenformin] (partner 250 µM)
How it was run: as §1

Cell Line	relative viability (Cediranib + Lapatinib; first compound 0.04 µM)	relative viability (Cediranib + Lapatinib; first compound 0.4 µM)	relative viability (Cediranib + Lapatinib; first compound 1.265 µM)	relative viability (Cediranib + Lapatinib; first compound 4 µM)	relative viability (Cediranib + Olaparib; first compound 0.04 µM)	relative viability (Cediranib + Olaparib; first compound 0.1265 µM)	relative viability (Cediranib + Olaparib; first compound 0.4 µM)	relative viability (Cediranib + Olaparib; first compound 1.265 µM)	relative viability (Cediranib + Olaparib; first compound 4 µM)	relative viability (Decitabine + Lapatinib; first compound 0.04 µM)	relative viability (Decitabine + Lapatinib; first compound 0.1265 µM)	relative viability (Decitabine + Lapatinib; first compound 0.4 µM)	relative viability (Decitabine + Lapatinib; first compound 1.265 µM)	relative viability (Decitabine + Lapatinib; first compound 4 µM)	relative viability ([1]; first compound 0.001 µM)	relative viability ([1]; first compound 0.003162 µM)	relative viability ([1]; first compound 0.01 µM)	relative viability ([1]; first compound 0.03162 µM)	relative viability ([1]; first compound 0.1 µM)	relative viability (Cediranib + Lapatinib; first compound 0.1265 µM)
NCI-H1395	0.961	1.35	0.97	1.01	0.472	0.448	0.474	0.541	0.42	0.819	0.675	0.571	0.528	0.821	0.457	0.464	0.442	0.444	0.334	
HOP-62	1.15	0.879	1.01	1.35	0.385		0.425	0.503	0.688	0.962	0.604	0.348	0.1	0.14	0.663	0.707	0.676	0.634	0.603	
LK-2	1.01	0.842	0.952	0.732	0.67	0.334	0.681	0.802	0.733	0.784	0.991	0.75	0.521	0.402	0.627	0.598	0.404	0.372	0.221	0.728
SW 1573	1.17	0.959	1.07	1.3	0.522	0.485	0.504	0.42	0.488	1.03	0.993	1.05	0.646	0.515	0.411	0.389	0.378	0.357	0.205	1.11
SK-LU-1	1	0.851	0.836	1.07	0.617	0.488	0.426	0.462	0.497	0.66	0.604	0.42	0.457	0.38	0.541	0.636	0.604	0.415	0.301	0.743
NCI-H23	0.977	1.21	0.881	1.38	0.373	0.326	0.277	0.323	0.342	0.777	0.795	0.237	0.235	0.22	0.774	0.762	0.757	0.806	0.669	
NCI-H1355	1.01	0.955	0.798	1.03	0.689	0.727	0.723	0.787	0.784	0.884	0.592	0.444	0.286	0.279	0.456	0.503	0.429	0.441	0.407	0.693
COR-L23	1.1	0.895	0.892	1.32	0.429	0.333	0.291	0.377	0.309	0.698	0.51	0.459	0.28	0.23	0.489	0.431	0.482	0.415	0.303	0.899
A549	0.927	0.949	0.994	0.992	0.353	0.23	0.302	0.333	0.473	0.898	0.843	0.49	0.305	0.19	0.186	0.215	0.148	0.163	0.109	1.01
NCI-H2023	0.852	0.716	0.654	0.878	0.511	0.445	0.47	0.445	0.527	0.55	0.519	0.125	0.231	0.157	0.441	0.418	0.383	0.395	0.2	0.0771
A-427	1.03	0.938	0.897	0.981	0.802		0.668	0.67	0.753	0.806	0.745	0.318	0.333	0.229	0.304	0.346	0.326	0.293	0.272	
NCI-H1793	0.838	0.654		0.742	0.953	1.07	0.762	0.718	1.13	0.543	0.604	0.489	0.562	0.291	0.438	0.388	0.429	0.328	0.332	0.693
NCI-H596	1.19	1.06	0.868	1.06	0.798	0.8	0.721	0.99	0.731	1.12	1.06	0.576	0.954	0.783	0.732	0.84	0.742	0.938	0.569	1.29
LU99A	1.14	0.936	0.877	1.06	0.236		0.244	0.267	0.314	1.01	1.08	1.19	0.866	0.683	0.945	1.08	0.841	0.764	0.735	
NCI-H2009	0.882	0.94	0.899	1.15	0.637	0.698	0.676	0.694	0.669	0.8	0.599	0.225	0.268	0.276	0.485	0.52	0.473	0.449	0.271	0.239

From the supplement of paper PMC10307832
